The values below come from patent publication US20060167269A1, “Compounds and methods for the inhibition of compounds cruzi” (priority 2001, published 2006).

Several values for one entry are separate records, joined by “and”; a condition that tells them apart may be missing. Identical values can stand only once. Like-named read-outs stand apart in the source and are kept apart here.

Data set [1] relates to T. cruzi (Tulahuen strain). The experiment in a line: T. cruzi growth on monolayers of mouse 3T3 fibroblasts. The class given is cell-based, Trypanosoma cruzi. The procedure: (§1) Compounds which appear in Table 1, below were tested […] using the Tulahuen strain of T. cruzi. See Buckner, et al., Antimicrobial Agents and Chemotherapy, 40, 2592-2597 (1996). In this assay, trypomastigotes were grown on monolayers of mouse 3T3 fibroblasts as previously described by Van Voorhis, et al., J. Exp. Med. 169: 641-652 (1989). […] The assay also tested for inhibition of fibroblast growth (an indication of potential toxicity). In virtually all instances, the compounds were non-toxic in the assay. In Table 1, if a substituent is left blank, such a substituent is defined as a hydrogen. [drawing 5]

Data set [2] relates to mouse 3T3 fibroblasts. The data set is described as follows: inhibition of fibroblast growth (indication of potential toxicity). The class given is cell-based. The following applies: inhibition of 3T3 fibroblast growth. The procedure: as §1
Data set [3] in a line: incubation in murine serum (ester hydrolysis). The data set is classed as in vitro ADME, mouse. The settings on record: 30 minutes of incubation. An excerpt: The blood serum esterase levels of mice is very high, and it was thought that eliminating the ester group would increase the bioavailability of the aminobiphenyl over the ester.
The subject of data set [4] is T. cruzi trypomastigotes (Tulahuen). The data set is described as follows: anti-T. cruzi activity in infected mice. The class given is in vivo, mouse. The procedure: FIGS. 3A and B represent mouse data for compound JJ121. FIG. 3A represents Parasite levels and FIG. 3B represents Survival for treated and control mice. Mice were dosed orally at 50 mg/kg twice daily on days 1-10. They were infected with T. cruzi trypomastigotes (Tulahuen) 2×10^3 SQ at day 0. Parasitemia was quantified microscopically on a small drop of tail blood at 400×.
Despite this apparent stability, however, the results for anti-T. cruzi activity in infected mice is much better for JJ121 than for JJ37. […] All mice receiving JJ121 survive past 100 days, whereas the vehicle mice all die by day 20.

The subject of data set [5] is Candida spp. The experiment in a line: Candida broth dilution assay. The data set is classed as cell-based. The procedure: (§2) The compound JJ119 was tested for anti-Candida activity in a standard assay, as described below, against a number of strains of fungus. The assay compared inhibition (the effective dose causing 80% growth inhibition of the fungus) of several strains of Candida spp. using Fluconazole and compound JJ 119 (R^3 is CH3, all other variable substituents are H) of the present invention (see Table I, above).
(§3) The Candida assay followed the “Reference method for broth dilution antifungal susceptibility testing of yeasts; approved standard”, NCCLS, June, 1997. The procedure was modified to a 96 well format (as described in Modifications section 3.8). The methodology employed deviated from the approved method by reading results at 24 h rather than 48 h (since cultures of the ATCC strains were generally dense by 24 h).
(§4) In general, Candida were inoculated at a density of 2×10^3/ml in RPMI based medium in the presence of drugs at the following concentrations: 50 uM, 10 uM, 2 uM, 0.4 uM, and 0 uM. Cells were incubated at 34° C. for 24 hr and growth inhibition was scored visually for turbidity. All drugs were diluted in DMSO (except fluconazole which was diluted in water). Top concentration of DMSO in the cultures was 0.25%; DMSO alone at 0.5% was not inhibitory to C. albicans.

Data set [6] has as its system C. albicans. The experiment in a line: Candida broth dilution assay, C. albicans. The data set is classed as cell-based. The following applies: 80% growth inhibition, 24 h. Here is the method: as §2, §3, §4
Background: Broth dilution looks for growth in wells or tubes with falling amounts of substance.

Data set [7] relates to C. krusei. The data set is described as follows: Candida broth dilution assay, C. krusei. The data set is classed as cell-based. The settings on record: 80% growth inhibition, 24 h. Here is the method:
as §2, §3, §4

For data set [8], the system named is C. glabrata. The experiment in a line: Candida broth dilution assay, C. glabrata. The data set is classed as cell-based. The following applies: 80% growth inhibition, 24 h. The procedure:
as §2, §3, §4

For data set [9], the system named is C. tropicalis. The data set is described as follows: Candida broth dilution assay, C. tropicalis. The data set is classed as cell-based. The settings on record: 80% growth inhibition, 24 h. Here is the method:
as §2, §3, §4

Data set [10] concerns C. parapsilosis. The data set is described as follows: Candida broth dilution assay, C. parapsilosis. The class given is cell-based. The following applies: 80% growth inhibition, 24 h. The procedure: as §2, §3, §4
[11] abbreviates: drug concentration giving 50% inhibition of T. cruzi growth on 3T3 fibroblasts, read-out: EC50 T. cruzi.
[12] abbreviates: read-out: activity against T. cruzi.

For the compound `CCOC(=O)c1ccc(NCc2cncn2Cc2ccc(-c3ccccc3)cc2)cc1-c1ccccc1` [JJ128], the EC50 in [1] (setting [11]) is 0.01 µM; in data set [2], > 10 µM.
For the compound `COC(=O)c1ccc(NCc2cncn2Cc2ccc(-c3ccccc3)cc2)cc1-c1ccccc1` [JJ37], the EC50 in [1] (read-out: activity against T. cruzi amastigotes) was 0.0005 µM; in data set [2], > 10 µM. Further, the “species found after incubation in murine serum” value in data set [3] is on record as “the ester is the only species”. Also, in [4] (infected mice), the “activity in mouse models” value was “shows activity in mouse models, but much less than that of JJ121”.
Take `COC(=O)c1ccc(NCc2cncn2Cc2ccc(Br)cc2)cc1-c1ccccc1` [JJ57, p-Br-imid-BP-COOMe]: the EC50 in data set [1] (setting [11]) was 0.02 µM; in [2], > 10 µM.
Take `COC(=O)c1ccc(NCc2cncn2Cc2cccc(C)c2)cc1-c1ccccc1` [JJ82, m-CH3-imid-BP-COOMe]: the results for the EC50 in [1] (setting [11]) and in [2] were 0.02 µM and > 10 µM, respectively.
As to `COC(=O)c1ccc(NCc2cncn2Cc2ccccc2N)cc1-c1ccccc1` [JJ105, o-NH2-imid-BP-COOMe], the results for the EC50 in data set [1] (setting [11]) and in [2] were 0.005 µM and > 10 µM, respectively.
In the case of `c1ccc(-c2ccc(Cn3cncc3CNc3ccc(-c4cc5ccccc5o4)c(-c4ccccc4)c3)cc2)cc1` [JJ138], the EC50 was 0.1 µM in data set [1] (setting [11]) and > 10 µM in [2].
The corresponding values for `COC(=O)c1ccc(NCc2cncn2Cc2cccc(C#N)c2)cc1-c1ccccc1` [JJ97, m-CN-imid-BP-COOMe] are 0.1 µM and > 10 µM.
`COC(=O)c1ccc(NCc2cncn2Cc2ccc(C#N)cc2)cc1-c1ccccc1` [JJ20]: the EC50 in data set [1] (setting [12]) was 0.04 µM; in data set [2], > 10 µM.
As to `COC(=O)c1ccc(NCc2cncn2Cc2ccccc2C#N)cc1-c1ccccc1` [JJ103, o-CN-imid-BP-COOMe], the EC50 was 0.2 µM in data set [1] (setting [11]) and > 10 µM in [2].
Take `Clc1ccc(Cn2cncc2CNc2cccc(-c3ccccc3)c2)cc1` [JJ120, p-Cl-imid-BP]: in [1] (setting [11]), the EC50 was determined as 0.08 µM. The anti-Candida activity result in data set [5] is listed as “exhibited activity”.
Take `COC(=O)c1ccc(NCc2cncn2Cc2ccc([N+](=O)[O-])cc2)cc1-c1ccccc1` [JJ51, p-NO2-imid-BP-COOMe]: the EC50 in data set [1] (setting [11]) is 0.1 µM; in data set [2], > 10 µM.
For the compound `N#Cc1ccc(Cn2cncc2CNc2cccc(-c3ccccc3)c2)cc1` [JJ73], the EC50 in data set [1] (setting [11]) stood at 0.05 µM.
As for `COC(=O)c1ccc(NCc2cncn2Cc2ccccc2)cc1-c1ccccc1` [JJ21], the EC50 in [1] (setting [11]) was 0.08 µM; in [2] it was > 10 µM.
As to `c1ccc(-c2ccc(Cn3cncc3CNc3ccc(-c4noc5ccccc45)c(-c4ccccc4)c3)cc2)cc1` [JJ141], the EC50 in data set [1] (setting [11]) is 0.01 µM; in data set [2], > 10 µM.
As for `COC(=O)c1ccc(NCc2cncn2Cc2cccc(Cl)c2)cc1-c1ccccc1` [JJ84, m-Cl-imid-BP-COOMe], the EC50 was 0.02 µM in data set [1] (setting [11]) and > 10 µM in data set [2].
Consider `COC(=O)c1ccc(NCc2cncn2Cc2ccc(Cl)cc2)cc1-c1ccccc1` [JJ53, p-Cl-imid-BP-COOMe], for which the EC50 in [1] (setting [11]) was 0.005 µM; in data set [2] it was > 10 µM.
On to `COC(=O)c1ccc(NCc2cncn2Cc2cccc(Br)c2)cc1-c1ccccc1` [JJ85, m-Br-imid-BP-COOMe], for which the EC50 in [1] (setting [11]) was 0.02 µM; in data set [2], > 10 µM.
Regarding `Cc1ccc(Cn2cncc2CNc2cccc(-c3ccccc3)c2)cc1` [JJ119, p-CH3-imid-BP], the EC50 in data set [1] (setting [11]) is 0.1 µM. Further, the ED80 was 12.5 µM in data set [6] (C. albicans strain 1); 12.5 µM in data set [6] (C. albicans strain 2); 6.25 µM in [6] (C. albicans strain 3); 25 µM in data set [7] (C. krusei strain 1); 50 µM in [7] (C. krusei strain 2); 25 µM in data set [7] (C. krusei strain 3). Also, the ED80 in data set [8] (C. glabrata strain 1) was 12.5 µM; in data set [8] (C. glabrata strain 2) it was 6.25 µM; in data set [8] (C. glabrata strain 3), 25 µM; in data set [9] (C. tropicalis strain 1), >100 µM; in data set [9] (C. tropicalis strain 2 (first line so named, r25)), >100 µM; in data set [9] (C. tropicalis strain 2 (second line so named, r27)), >100 µM. Further, the ED80 in [10] (C. parapsilosis strain 1) was 100 µM and 50 µM; in [10] (C. parapsilosis strain 2), 25 µM and 12.5 µM. The anti-Candida activity result in [5] is “favorable anti-Candida activity”.
As to `COC(=O)c1ccc(NCc2cncn2Cc2ccccc2Br)cc1-c1ccccc1` [JJ102, o-Br-imid-BP-COOMe], the EC50 in data set [1] (setting [11]) was determined as 0.1 µM.
Consider `COC(=O)c1ccc(NCc2cncn2Cc2cccc([N+](=O)[O-])c2)cc1-c1ccccc1` [JJ81, m-NO2-imid-BP-COOMe], for which the EC50 in [1] (setting [11]) is 0.03 µM; in data set [2] it was > 10 µM.
In the case of `COC(=O)c1ccc(NCc2cncn2Cc2cccc(C(F)(F)F)c2)cc1-c1ccccc1` [JJ104], the EC50 is 0.04 µM in [1] (setting [11]) and > 10 µM in [2].
For the compound `CC(C)OC(=O)c1ccc(NCc2cncn2Cc2ccc(-c3ccccc3)cc2)cc1-c1ccccc1` [JJ129], the EC50 is 0.05 µM in [1] (setting [11]) and > 10 µM in data set [2].
Turning to `COC(=O)c1ccc(NCc2cncn2Cc2cccc(N)c2)cc1-c1ccccc1` [JJ83, m-NH2-imid-BP-COOMe], the EC50 in [1] (setting [11]) was 0.13 µM; in data set [2], > 10 µM.
As for `COC(=O)c1ccc(NCc2cncn2Cc2ccccc2Cl)cc1-c1ccccc1` [JJ117], in data set [2], the EC50 is > 10 µM.
Turning to `COC(=O)c1ccc(NCc2cncn2Cc2ccc(C)cc2)cc1-c1ccccc1` [JJ52, p-CH3-imid-BP-COOMe], the EC50 in [1] (setting [11]) was 0.005 µM; in data set [2] it was > 10 µM.
As for `O=C(OC1CCCCC1)c1ccc(NCc2cncn2Cc2ccc(-c3ccccc3)cc2)cc1-c1ccccc1` [JJ130], the EC50 in [1] (setting [11]) is 0.01 µM; in data set [2] it was > 10 µM.
On to `COC(=O)c1ccc(NCc2cncn2Cc2ccc(N)cc2)cc1-c1ccccc1` [JJ58, p-NH2-imid-BP-COOMe], for which the EC50 in data set [1] (setting [11]) was 0.25 µM; in [2], > 10 µM.
Consider `COC(=O)c1ccc(NCc2cncn2Cc2ccccc2C)cc1-c1ccccc1` [JJ101, o-CH3-imid-BP-COOMe], for which, in data set [1] (setting [11]), the EC50 stood at 1 µM.
For `c1ccc(-c2ccc(Cn3cncc3CNc3cccc(-c4ccccc4)c3)cc2)cc1` [JJ121, p-Ph-imid-BP], the “reduced activity compared with JJ37” value in data set [1] is 20 fold. In data set [1] (T. cruzi), this compound gave an IC50 of 0.01 µM. In addition, in data set [1] (setting [11]), the EC50 is 0.01 µM. Moreover, the survival in data set [4] (mice, oral 50 mg/kg twice daily on days 1-10, vehicle mice all die by day 20) is > 100 days. The “parasite level in mouse blood” value in data set [4] (mice, oral 50 mg/kg twice daily, within 45 days) is “dramatic suppression of parasite from mouse blood”.
For `N#Cc1ccc(Cn2cncc2CNc2ccc(C(=O)O)c(-c3ccccc3)c2)cc1` [JJ28], the EC50 in [1] (setting [12]) was 1 µM; in [2], > 10 µM.
In the case of `O=[N+]([O-])c1ccc(Cn2cncc2CNc2cccc(-c3ccccc3)c2)cc1` [JJ118, p-NO2-imid-BP], in [1] (setting [11]), the EC50 was found to be 0.1 µM.
`OC(Cn1cncn1)(Cn1cncn1)c1ccc(F)cc1F` [Fluconazole]: the ED80 is 6.53 µM in data set [6] (C. albicans strain 1); 104.5 μM and (32) μg/ml in [8] (C. glabrata strain 1); 6.528 μM and (2) μg/ml in data set [8] (C. glabrata strain 2); 208.9 μM and (64) μg/ml in [8] (C. glabrata strain 3).

The IC50 is the concentration at which inhibition is half-maximal. High values mean a need for much substance, low ones inhibition by little substance.
